In ChEMBL document CHEMBL1149607, “Synthesis, characterization and antimicrobial activity of new aliphatic sulfonamide” (2007):
Converted amounts (≈) assume the structure as drawn.

Assays:
Format in all cases: functional
[1] = system: Candida albicans; assay: Antifungal activity against Candida albicans by microdilution broth method
[2] = system: Escherichia coli; assay: Antibacterial activity against Escherichia coli ATCC 11230 after 24 hrs by disc diffusion method
[3] = system: Listeria monocytogenes; assay: Antibacterial activity against Listeria monocytogenes Li6 isolate by microdilution broth method
[4] = system: Staphylococcus aureus; assay: Antibacterial activity against Staphylococcus aureus ATCC 25923 after 24 hrs by disc diffusion method
[5] = system: Candida albicans; assay: Antifungal activity against Candida albicans after 48 hrs by disc diffusion method
[6] = system: Listeria monocytogenes; assay: Antibacterial activity against Listeria monocytogenes Li6 isolate after 24 hrs by disc diffusion method
[7] = system: Bacillus cereus; assay: Antibacterial activity against Bacillus cereus ATCC […] by microdilution broth method
[8] = system: Staphylococcus aureus; assay: Antibacterial activity against Staphylococcus aureus ATCC 25923 by microdilution broth method
[9] = system: Escherichia coli; assay: Antibacterial activity against Escherichia coli ATCC 11230 by microdilution broth method
[10] = system: Bacillus cereus; assay: Antibacterial activity against Bacillus cereus ATCC […] after 24 hrs by disc diffusion method
[11] = system: Escherichia coli; assay: Antibacterial activity against Escherichia coli ATCC 11230 at 10 ug after 24 hrs by disc diffusion method; details: ATCC 11230, 24 h, read-out: IZ
[12] = system: Candida albicans; assay: Antifungal activity against Candida albicans at 50 ug after 48 hrs by disc diffusion method; details: read-out: IZ
[13] = system: Bacillus cereus; assay: Antibacterial activity against Bacillus cereus ATCC […] at 1 ug after 24 hrs by disc diffusion method; details: read-out: IZ
[14] = system: Staphylococcus aureus; assay: Antibacterial activity against Staphylococcus aureus ATCC 25923 at 10U by disc diffusion method

| Compound | MIC [1] [µg/mL] | inhibition zone (IZ) [2] [mm] | MIC [3] [µg/mL] | inhibition zone (IZ) [4] [mm] | inhibition zone (IZ) [5] [mm] | inhibition zone (IZ) [6] [mm] | MIC [7] [µg/mL] | MIC [8] [µg/mL] | MIC [9] [µg/mL] | inhibition zone (IZ) [10] [mm] | zone of inhibition at 10 µg/disc [11] [mm] | zone of inhibition at 50 µg/disc [12] [mm] | zone of inhibition at 1 µg/disc [13] [mm] | inhibition zone (IZ) [14] [mm] |
| --- | --- | --- | --- | --- | --- | --- | --- | --- | --- | --- | --- | --- | --- | --- |
| CCCS(=O)(=O)NCCCNS(=O)(=O)CCC | 532 (≈ 1860 µM) | 12 | 532 (≈ 1860 µM) | 11 | 12 | 11 | 380 (≈ 1330 µM) | 456 (≈ 1590 µM) | 228 (≈ 796 µM) | – | – | – | – | – |
| CCCS(=O)(=O)NCCCCNS(=O)(=O)CCC | 336 (≈ 1120 µM) | 12 | 228 (≈ 759 µM) | – | – | – | 336 (≈ 1120 µM) | 336 (≈ 1120 µM) | 240 (≈ 799 µM) | – | – | – | – | – |
| CCCCS(=O)(=O)NCCNS(=O)(=O)CCCC | 324 (≈ 1080 µM) | 10 | 216 (≈ 719 µM) | – | – | – | 243 (≈ 809 µM) | 216 (≈ 719 µM) | 243 (≈ 809 µM) | – | – | – | – | – |
| CCCCS(=O)(=O)NCCCNS(=O)(=O)CCCC | 315 (≈ 1000 µM) | 10 | 225 (≈ 715 µM) | – | 10 | 11 | 180 (≈ 572 µM) | 270 (≈ 859 µM) | 225 (≈ 715 µM) | 10 | – | – | – | – |
| CCCCS(=O)(=O)NCCCCCNS(=O)(=O)CCCC | 540 (≈ 1580 µM) | 12 | 432 (≈ 1260 µM) | – | 13 | – | 540 (≈ 1580 µM) | 432 (≈ 1260 µM) | 486 (≈ 1420 µM) | – | – | – | – | – |
| CCCCS(=O)(=O)NCCCCNS(=O)(=O)CCCC | 555 (≈ 1690 µM) | 11 | 648 (≈ 1970 µM) | 10 | 12 | – | 463 (≈ 1410 µM) | 648 (≈ 1970 µM) | 555 (≈ 1690 µM) | – | – | – | – | – |
| CCCS(=O)(=O)NCCNS(=O)(=O)CCC | 300 (≈ 1100 µM) | 11 | 300 (≈ 1100 µM) | 12 | – | 16 | 250 (≈ 918 µM) | 300 (≈ 1100 µM) | 150 (≈ 551 µM) | – | – | – | – | – |
| CC1(C)S[C@@H]2[C@H](NC(=O)[C@H](N)c3ccccc3)C(=O)N2[C@H]1C(=O)O [AMPICILLIN] | – | – | – | – | – | – | – | – | – | – | 9 | – | – | – |
| CC(=O)N1CCN(c2ccc(OC[C@H]3CO[C@](Cn4ccnc4)(c4ccc(Cl)cc4Cl)O3)cc2)CC1 [KETOCONAZOLE] | – | – | – | – | – | – | – | – | – | – | – | 16 | – | – |
| Cc1onc(-c2ccccc2)c1C(=O)N[C@@H]1C(=O)N2[C@@H]1SC(C)(C)[C@@H]2C(=O)O [OXACILLIN] | – | – | – | – | – | – | – | – | – | – | – | – | 9 | – |
| CC1(C)S[C@@H]2[C@H](NC(=O)Cc3ccccc3)C(=O)N2[C@H]1C(=O)O [PENICILLIN G] | – | – | – | – | – | – | – | – | – | – | – | – | – | 19 |
